Target: human GPR120 (Homo sapiens (Human), UniProt Q5NUL3)
Assay: GPR120 pERK AlphaScreen SureFire assay (human GPR120 pERK assay)
Type: cell-based
Details: CHOA12 or CHO-K1 cells stably transfected with short form of human GPR120, 100% = 50 μM linolenic acid
Excerpt: GPR120 activity was monitored by measuring phosphorylation of ERK (pERK), since G protein receptors are known to activate the ERK signaling cascade either directly and/or through recruitment of arrestin that serves as a scaffold for downstream signaling events.
GPR120 pERK AlphaScreen SureFire Assay
The human and mouse GPR120-mediated intracellular phosphorylated ERK assays were established using CHOA12 cells stably transfected with the short form of human or mouse GPR120 receptor. Cells were cultured in growth medium consisting of F-12 media (Invitrogen Cat. #11765) with 5% Charcoal/Dextran FBS (Invitrogen Cat. #12676-029), 500 μg/mL GENETICIN® (Life Technologies Cat. #10131-027) and 250 μg/mL Zeocin (Invitrogen Cat. #R250-01). Cells were cryo preserved at a concentration of 2×10^7 cells/mL, in 90% Charcoal/Dextran FBS and 10% DMSO, and frozen in liquid nitrogen at a low passage number.
For the pERK assay, 2×10^7 cells/mL cryopreserved human and mouse cells were thawed rapidly in a 37° C. water bath and added to a T-225 flask containing 50 mL growth medium. The flasks were placed in a tissue culture incubator overnight (37° C., 5% CO2). The next day, cells were harvested with trypsin (Gibco Cat. #25300-054), resuspended in serum-containing growth medium and counted using a Cellometer and volume adjusted to a concentration of 0.6×10^6 cells/mL. Cells were plated into 384-well clear bottom tissue culture plates (BD Cat. #353962) at 50 μL/well, for a density of 30,000 cells/well using a MULTIDROP® and incubated for 16-18 hours (overnight) at 37° C. with 5% CO2. The next day, cells were serum starved in 30 μL of F-12 media without any serum or antibiotics for 2 hours at 37° C.
Test compounds were 3-fold, 11-point serially diluted in DMSO in a REMP assay plate (Matrix Cat. #4307) by Tecan and 5 μL was transferred into an ECHO source plate (Labcyte Cat. #LC-0200). Cells were then stimulated with 50 nL of compound dilutions using ECHO liquid handler for 7 minutes at 37° C. Compounds ranged from final assay concentrations of 33.33 μM to 0.56 nM.
The media was then dumped and cells lysed with 20 μL of 1× Lysis buffer from the AlphaScreen SureFire Phospho-ERK 1/2 Kit (Perkin Elmer Cat. #6760617M). The lysis buffer was diluted 5-fold with water before use. The plate was agitated on a shaker for 10 minutes after which 2 μL was transferred into a 384-well white proxiplate (Perkin Elmer Cat. #6008289). The SureFire assay reagent mix was prepared by mixing 60 parts Reaction Buffer, 10 parts Activation Buffer, 1 part Donor Beads, 1 part Acceptor Beads (Perkin Elmer Cat. #TGRES10K). 3.5 μL/well of this reagent mix was manually added to the proxiplate with a multichannel pipettor. Plates were spun down at 1000 rpm for 2 minutes, followed by light-protected incubation at room temperature for 2 hours. The plates were read on the Alpha-technology compatible Envision multilabel plate reader using AlphaScreen protocol according to manufacturer's specifications. The agonist effect of compounds was expressed as 100×(average sample-average blank)/(average total−average blank) where sample is the luminescence activity in the presence of test compound, blank is equal to the luminescence activity in the presence of DMSO control and the total is signal induced by 50 μM linolenic acid as reference compound. Activation data for the test compound over a range of concentrations was plotted as percentage activation of the test compound (100%=maximum response). After correcting for background, EC50 values were determined. The EC50 is defined as the concentration of test compound which produces 50% of the maximal response and was quantified using the 4 parameter logistic equation to fit the data.
The human and mouse GPR120-mediated intracellular phosphorylated ERK assays were also established using CHO-K1 cells stably transfected with the short form of human or mouse GPR120 receptor. […]

Chain of human GPR120 (Q5NUL3 whole entry): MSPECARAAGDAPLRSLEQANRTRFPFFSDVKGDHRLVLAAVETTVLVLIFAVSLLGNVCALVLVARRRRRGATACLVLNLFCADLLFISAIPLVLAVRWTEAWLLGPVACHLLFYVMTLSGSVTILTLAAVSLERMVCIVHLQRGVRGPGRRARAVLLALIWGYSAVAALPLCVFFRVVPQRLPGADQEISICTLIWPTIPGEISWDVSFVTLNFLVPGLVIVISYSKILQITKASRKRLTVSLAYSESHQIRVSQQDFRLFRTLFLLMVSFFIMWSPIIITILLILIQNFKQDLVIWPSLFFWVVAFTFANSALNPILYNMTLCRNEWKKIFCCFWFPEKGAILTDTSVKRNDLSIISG

Compound	EC50 [nM]
O=C(O)[C@@H]1C[C@H]1CCc1ccc(N2CCC[C@H](Oc3ccccc3)C2)cc1 [Example 51]	1900
O=C(O)CCCCc1ccc(N2CCC[C@H](Oc3ccccc3)C2)cc1 [Example 23, (S)-5-(4-(3-Phenoxypiperidin-1-yl)phenyl)pentanoic acid]	500
CC(C)O[C@H]1CCC[C@@H](c2ccc(CCCCC(=O)O)cc2)C1 (single isomer, unassigned) [Example 3, 5-(4-((+/−)-3-Isopropoxycyclohexyl)phenyl)pentanoic acid]	1160
O=C(O)COCCc1ccc(N2CCCC(c3ccccc3)C2)cc1 (stereo not shown) [Example 57]	2260
O=C(O)CCCCc1ccc(C2CCCCC(Oc3ccccc3Cl)C2)cc1 (stereo not shown) [Example 46]	3120
O=C(O)CCCCc1ccc(C2CCCCC(Oc3ccccc3)C2)cc1 (single isomer, unassigned) [Example 13, 5-(4-(3-Phenoxycycloheptyl)phenyl)pentanoic acid]	1030
O=C(O)CCCCc1ccc(C2CCCCC(Oc3cccc(Cl)c3)C2)cc1 (stereo not shown) [Example 45]	2020
O=C(O)COCCc1ccc(N2CCC(Oc3ccccc3)C2)cc1 (stereo not shown) [Example 59]	5270
O=C(O)[C@@H]1C[C@H]1CCc1ccc([C@@H]2CCC[C@@H](Oc3ccccc3)C2)cc1 (racemic) [Example 41]	1940
O=C(O)[C@H]1C[C@@H]1CCc1ccc([C@@H]2CCC[C@H](Oc3ccccc3)C2)cc1 (single isomer, unassigned) [Example 7]	920

Reference: patent US10336684B2, “Phenyl-(aza)cycloalkyl carboxylic acid GPR120 modulators” (BRISTOL-MYERS SQUIBB COMPANY, priority 2014, dated 2019)
